Assay results published in patent US10450316B2, “Certain protein kinase inhibitor” (Chongqing Fochon Pharmaceutical Co., Ltd., priority 2015, dated 2019).

Test system: BE(2)-C cell
Experiment: Cell proliferation assay (MTS) in BE(2)-C cells
Type: cell-based
Details: Homo sapiens, inhibition of BE(2)-C cell proliferation, 48 h
Procedure: MTS testing kit was purchased from Promega. The DMEM, Fetal bovine serum and Penicillin-Streptomycin were purchased from Gibco. Dimethyl sulfoxide (DMSO) was purchased from Sigma.
To investigate whether a compound is able to inhibit the activity of CDK4/6 in cells, mechanism-based assays using BE(2)-C cell (ATCC® number:CRL-2268) were developed. In the assay, inhibition of CDK4/6 was detected by the inhibition of BE(2)-C cell cells proliferation. BE(2)-C cell cells were cultured in culture flasks to 40-80% confluence in DMEM plus 10% fetal bovine serum. Cells were collected and plated onto 96-well plates at cell density of 3000 cells/well. Plates were incubated overnight at 37° C., with 5% CO2 to adhere. Compounds were added to the plates, the final compound concentrations were 10000, 3333, 1111, […], 123.5, 41.2, 13.7, 4.6 and 1.5 nM. Place plates at 37° C., with 5% CO2 for 48 h. After removing the medium, 20 μl MTS/100 μl medium mixture solution were added to each well and incubate the plates for exactly 2 hours. The reaction was terminated by adding 25 μl 10% SDS per well. Measure absorbance at 490 nm and 650 nm (reference wavelength). IC50 was calculated using GraphPad Prism 5.0.
Select compounds prepared as described above were assayed according to the biological procedures described herein. “++++” stands for IC50 value below about 10 nM. “+++” stands for IC50 value between greater than about 10 nM to about 100 nM. “++” stands for IC50 value between greater than about 100 nM to about […]. “+” stands for IC50 value greater than 1 μM.

SMILES	IC50
CN1CCC2(CC1)CCN(Cc1ccc(Nc3ncc(F)c(-c4cc(F)c5nc6n(c5c4)[C@H](CF)CC6)n3)nc1)CC2 [Example 30, (S)-5-fluoro-4-(5-fluoro-1-(fluoromethyl)-2,3-dihydro-1H-benzo[d]pyrrolo[1,2-a]imidazol-7-yl)-N-(5-((9-methyl-3,9-diazaspiro[5.5]undecan-3-yl)methyl)pyridin-2-yl)pyrimidin-2-amine]	> 0.1 µM
CCN1CCC2(CC1)CCN(Cc1ccc(Nc3ncc(F)c(-c4cc(F)c5nc6n(c5c4)[C@H](CF)CC6)n3)nc1)CC2 [Example 31, (S)-N-(5-((9-ethyl-3,9-diazaspiro[5.5]undecan-3-yl)methyl)pyridin-2-yl)-5-fluoro-4-(5-fluoro-1-(fluoromethyl)-2,3-dihydro-1H-benzo[d]pyrrolo[1,2-a]imidazol-7-yl)pyrimidin-2-amine]	> 0.1 µM
FC[C@@H]1CCc2nc3c(F)cc(-c4nc(Nc5ccc(CN6C7CCC6CNC7)cn5)ncc4F)cc3n21 [Example 32, N-(5-((3,8-diazabicyclo[3.2.1]octan-8-yl)methyl)pyridin-2-yl)-5-fluoro-4-((S)-5-fluoro-1-(fluoro-methyl)-2,3-dihydro-1H-benzo[d]pyrrolo[1,2-a]imidazol-7-yl)pyrimidin-2-amine]	> 0.1 µM
CN1CC2CCC(C1)N2Cc1ccc(Nc2ncc(F)c(-c3cc(F)c4nc5n(c4c3)[C@H](CF)CC5)n2)nc1 [Example 33, 5-fluoro-4-((S)-5-fluoro-1-(fluoromethyl)-2,3-dihydro-1H-benzo[d]pyrrolo[1,2-a]imidazol-7-yl)-N-(5-((3-methyl-3,8-diazabicyclo[3.2.1]octan-8-yl)methyl)pyridin-2-yl)pyrimidin-2-amine]	0.01 to 0.1 µM
CCN1CC2CCC(C1)N2Cc1ccc(Nc2ncc(F)c(-c3cc(F)c4nc5n(c4c3)[C@H](CF)CC5)n2)nc1 [Example 34, N-(5-((3-ethyl-3,8-diazabicyclo[3.2.1]octan-8-yl)methyl)pyridin-2-yl)-5-fluoro-4-((S)-5-fluoro-1-(fluoromethyl)-2,3-dihydro-1H-benzo[d]pyrrolo[1,2-a]imidazol-7-yl)pyrimidin-2-amine]	0.01 to 0.1 µM
FC[C@@H]1CCc2nc3c(F)cc(-c4nc(Nc5ccc(CN6CC7CCC(C6)N7)cn5)ncc4F)cc3n21 [Example 35, N-(5-((3,8-diazabicyclo[3.2.1]octan-3-yl)methyl)pyridin-2-yl)-5-fluoro-4-((5)-5-fluoro-1-(fluoro-methyl)-2,3-dihydro-1H-benzo[d]pyrrolo[1,2-a]imidazol-7-yl)pyrimidin-2-amine]	> 0.1 µM
CN1C2CCC1CN(Cc1ccc(Nc3ncc(F)c(-c4cc(F)c5nc6n(c5c4)[C@H](CF)CC6)n3)nc1)C2 [Example 36, 5-fluoro-4-((5)-5-fluoro-1-(fluoromethyl)-2,3-dihydro-1H-benzo[d]pyrrolo[1,2-a]imidazol-7-yl)-N-(5-((8-methyl-3,8-diazabicyclo[3.2.1]octan-3-yl)methyl)pyridin-2-yl)pyrimidin-2-amine]	> 0.1 µM
CCN1C2CCC1CN(Cc1ccc(Nc3ncc(F)c(-c4cc(F)c5nc6n(c5c4)[C@H](CF)CC6)n3)nc1)C2 [Example 37, N-(5-((8-ethyl-3,8-diazabicyclo[3.2.1]octan-3-yl)methyl)pyridin-2-yl)-5-fluoro-4-((S)-5-fluoro-1-(fluoromethyl)-2,3-dihydro-1H-benzo[d]pyrrolo[1,2-a]imidazol-7-yl)pyrimidin-2-amine]	0.01 to 0.1 µM
Fc1cnc(Nc2ccc(N3CCNCC3)cn2)nc1-c1cc(F)c2nc3n(c2c1)[C@H](C(F)F)CC3 [Example 38, (S)-4-(1-(difluoromethyl)-5-fluoro-2,3-dihydro-1H-benzo[d]pyrrolo[1,2-a]imidazol-7-yl)-5-fluoro-N-(5-(piperazin-1-yl)pyridin-2-yl)pyrimidin-2-amine]	> 0.1 µM
